As a reminder, the viability is a read-out of living cells in per cent, often relative to untreated cells.

Experimental findings from publication PMC12040169 (PLOS Biology, 2025) are described below.

The series can be described thus: in vitro. The conditions noted are these: human, hela cells, % viability.

Consider `Cn1cc(CNS(=O)(=O)c2ccc(Br)c(F)c2)cn1` [CBK305539], for which the viability at 28.5 h, 10 µM came to 87.7%.

Turning to `Cc1cc(C(=O)N2C[C@H]3CC[C@](O)(c4ccc(F)cc4)[C@H]3C2)on1` [CBK284354], the viability at 28.5 h, 10 µM came to 92.4%.

For `CC(=O)Nc1ccc(S(=O)(=O)Nc2cccc(C(=O)O)c2)cc1` [CBK050407], the viability at 28.5 h, 10 µM stood at 98.7%.

As to `CCN1CCN(C(=O)CN(C)S(=O)(=O)c2ccc(OC)c(C)c2)CC1` [CBK268880], the viability at 28.5 h, 10 µM came out at 110%.

With `O=S(=O)(CCc1ccccn1)N1CCC(Cc2ccccc2)CC1` [CBK043632], the viability at 28.5 h, 10 µM turned out to be 107%.

As for `CCc1nccn1CCN1CCCC(COc2ccccc2F)C1` (stereo not shown) [CBK307416], the viability at 28.5 h, 10 µM came to 93.4%.

Turning to `O=S(=O)(c1ccc(NC(=S)NCc2cccnc2)cc1)N1CCOCC1` [CBK268396], the viability at 28.5 h, 10 µM was 72.8%.

As to `CCOC(=O)C1(Cc2cc(-c3ccccc3F)no2)CCCNC1` (stereo not shown) [CBK284577], the viability at 28.5 h, 10 µM is 85.2%.

Take `COc1ccccc1N1CCN(CC2CN(c3ccccc3)c3ccccc3O2)CC1` (stereo not shown) [CBK066872C]: the viability at 28.5 h, 10 µM was 84.7%.

For `COC(=O)c1sccc1-c1ccc(C2C3=C(CCCC3=O)NC3=C2C(=O)CCC3)o1` [CBK005748], the viability at 28.5 h, 10 µM turned out to be 92.3%.

For the compound `COc1cncc(-c2cc(N3CCN(C(=O)c4ccco4)CC3)ncn2)c1` [CBK091121], the viability at 28.5 h, 10 µM is 97.4%.

Take `Cc1ccc(CCC(=O)N(CC(=O)O)C2CCOCC2)c(C)c1` [CBK304509]: the viability at 28.5 h, 10 µM was determined as 91.6%.

Consider `O=C(C1CC1)N1C2CCC1CC(O)(Cn1ccc3ccncc31)C2` (stereo not shown) [CBK284652], for which the viability at 28.5 h, 10 µM was 90.4%.

As for `COc1ccccc1CNCc1ccccn1` [CBK262261], the viability at 28.5 h, 10 µM was determined as 89.4%.

With `Nc1cccc(-c2cncc(N(CCO)CCO)n2)c1` [CBK065808], the viability at 28.5 h, 10 µM was 95.5%.

For `COc1ccccc1CN1CCC(Cc2ccccc2-c2ccc(C)cc2C)(C(=O)O)CC1` [CBK286419], the viability at 28.5 h, 10 µM was 88.4%.

`COc1cc(/C=C(/C#N)c2nc3ccccc3[nH]2)ccc1OCc1ccc(C(=O)O)o1` [CBK267839]: the viability at 28.5 h, 10 µM stood at 90.7%.

`O=C1OCCN1S(=O)(=O)c1ccc(CN2CCN(Cc3ccc(S(=O)(=O)N4CCOC4=O)cc3)CC2)cc1` [CBK024729]: the viability at 28.5 h, 10 µM came to 91.4%.

As for `CCC(C)(C)c1ccc(S(=O)(=O)Nc2cc(Cl)ccc2O)cc1` [CBK045243], the viability at 28.5 h, 10 µM worked out at 96%.

`CCCn1c(SCc2csc(CC(=O)Nc3ccccc3C)n2)n[nH]c1=O` [CBK296969]: the viability at 28.5 h, 10 µM was 91.1%.

Consider `CCn1cc(CN(C)Cc2ccon2)c2cc(C(=O)O)ncc21` [CBK307017], for which the viability at 28.5 h, 10 µM came out at 84.7%.

In the case of `CC1(C)OC(=O)CC1C(=O)N1CCCC(COc2ccccc2F)C1` (stereo not shown) [CBK282098], the viability at 28.5 h, 10 µM turned out to be 100%.

As for `Cc1ccc(Cl)cc1NC(=O)C1CC(=O)N(Cc2ccccn2)C1` (stereo not shown) [CBK305561], the viability at 28.5 h, 10 µM worked out at 101%.

Take `CCCc1cc(O)n(-c2nc3ccccc3[nH]2)n1` [CBK270269]: the viability at 28.5 h, 10 µM is 82.7%.

As for `CCCCc1ccc(S(=O)(=O)c2cnc(SCC(=O)Nc3ccc(Cl)cc3)[nH]c2=O)cc1` [CBK300539], the viability at 28.5 h, 10 µM was found to be 106%.

In the case of `CC(NC(=O)CS(=O)(=O)Cc1ccc(C#N)cc1)c1ccc(C#N)cc1` (stereo not shown) [CBK297791], the viability at 28.5 h, 10 µM was determined as 91.1%.

In the case of `O=C(NC(c1ccc(Cl)cc1)c1ccsc1)C1CCN(CCc2ccc(F)cc2)CC1` (stereo not shown) [CBK147976], the viability at 28.5 h, 10 µM was 88.4%.

Regarding `CC1=CCC(C(=O)O)C(C(=O)Nc2ccccc2NC(=O)c2ccc(C(F)(F)F)cc2)C1` (stereo not shown) [CBK265794], the viability at 28.5 h, 10 µM turned out to be 99.9%.

For `COc1ccccc1C1(NC(=O)CCn2nccc2C)CCCC1` [CBK283628], the viability at 28.5 h, 10 µM turned out to be 89.7%.

Take `N#Cc1c(-c2ccccc2)cc(-c2ccccc2)nc1SCC(=O)O` [CBK131684]: the viability at 28.5 h, 10 µM was determined as 92.6%.

As to `Cc1cc(C)n2ncc(C(=O)N3CCCC3c3ccc(F)cc3)c2n1` (stereo not shown) [CBK305885], the viability at 28.5 h, 10 µM came to 82.9%.

As for `CN1CCN(CC(=O)Nc2cc(N3CCOCC3)ccc2[N+](=O)[O-])CC1` [CBK047475], the viability at 28.5 h, 10 µM was 92.9%.

As to `CC(C)Cc1cnc2c(c1SCc1ccc(F)cc1)c(=O)n(C)c(=O)n2C` [CBK294409], the viability at 28.5 h, 10 µM was 95.6%.

Turning to `COc1ccc(OC)c(NC(=O)c2cnc3scc(C)n3c2=O)c1` [CBK287462], the viability at 28.5 h, 10 µM stood at 90.5%.

On to `COc1ccccc1CCCNC(=O)c1csc(C(C)=O)c1` [CBK282513], for which the viability at 28.5 h, 10 µM turned out to be 98.8%.

With `O=C(O)C(O)(c1ccccc1)c1cccs1` (stereo not shown) [CBK022808], the viability at 28.5 h, 10 µM (bulk resorufin, single well) came out at 108%.

For the compound `O=C(Nc1ccccc1N1CCN(C(=O)c2ccccc2)CC1)c1cccnc1` [CBK269948], the viability at 28.5 h, 10 µM came to 100%.

Regarding `COc1cccc(OC)c1OCCCN1CCCCC1` [CBK262719], the viability at 28.5 h, 10 µM was determined as 97.7%.

Take `COc1ccnc(N2CCN(C(=O)c3cc(C(C)=O)cn3C)CC2)n1` [CBK306272]: the viability at 28.5 h, 10 µM came to 91.2%.

For the compound `Cc1nc2c(cc(OCC(O)COc3ccc(C#N)cc3)c3ccsc32)s1` (stereo not shown) [CBK296632], the viability at 28.5 h, 10 µM stood at 84.6%.

As for `O=C(O)CSc1cccc([N+](=O)[O-])c1` [CBK110160], the viability at 28.5 h, 10 µM was found to be 101%.

Consider `Fc1ccc(CNc2c(-c3cccs3)nc3cnccn23)cc1` [CBK283487], for which the viability at 28.5 h, 10 µM was determined as 112%.

Consider `CCCOc1ccc(-c2cc(C(=O)NO)n[nH]2)cc1C` [CBK288362], for which the viability at 28.5 h, 10 µM was found to be 61.3%.

`CCCCN1C(=O)N(c2nnc(C(C)(C)C)s2)C(=O)C1c1ccc(Cl)c(Cl)c1` (stereo not shown) [CBK085921]: the viability at 28.5 h, 10 µM came out at 114%.

Regarding `Cc1ccc(NC(=O)CN(c2ccccc2)S(=O)(=O)c2ccccc2[N+](=O)[O-])cc1C` [CBK262345], the viability at 28.5 h, 10 µM came out at 57.7%.

Regarding `Cc1noc(C)c1CC(=O)N1CCC(c2ccccc2)C1` (stereo not shown) [CBK281959], the viability at 28.5 h, 10 µM was 102%.

Consider `CCOC(=O)C1CCCN(Cc2nc3cc(Cl)ccc3c(=O)[nH]2)C1` (stereo not shown) [CBK306198], for which the viability at 28.5 h, 10 µM was determined as 86.9%.

On to `CC(=O)NCCNC(=O)c1cc(-c2cccc(S(C)(=O)=O)c2)cnc1NCC1CC1` [CBK076351], for which the viability at 28.5 h, 10 µM is 93.9%.

As to `C=CCn1c(Cc2csc(NC(=O)c3cnc(C)cn3)n2)n[nH]c1=S` [CBK295319], the viability at 28.5 h, 10 µM stood at 90.4%.

Regarding `COCCCN(Cc1cc(F)cc(F)c1)Cc1ccccn1` [CBK282975], the viability at 28.5 h, 10 µM was determined as 100%.

In the case of `N#Cc1ccc(C(=O)N2C[C@@H]3C[C@H](C2)c2ccc(-c4cccc(C#N)c4)c(=O)n2C3)cc1` [CBK289187], the viability at 28.5 h, 10 µM is 101%.

Consider `CCCC/C=C/c1cnc(N)c(N[C@H](C)c2ccccc2)n1` [CBK064148], for which the viability at 28.5 h, 10 µM was found to be 95.1%.

Take `Cc1ccc(C2CCCN2C(=O)c2cccn(CC(=O)Nc3ccc(F)cc3)c2=O)cc1C` (stereo not shown) [CBK286528]: the viability at 28.5 h, 10 µM turned out to be 90.1%.

For `NC(=O)c1sc2nc(-c3cccnc3)ccc2c1N` [CBK023645], the viability at 28.5 h, 10 µM was determined as 66%.

Consider `COC(=O)c1cn([C@H]2CO[C@H]3[C@@H]2OC[C@@H]3NC(=O)Nc2ccc(OC)cc2)nn1` [CBK289500], for which the viability at 28.5 h, 10 µM is 94.2%.

As to `O=C1CC(c2ccco2)CC(=O)C1=CNCCN1CCNCC1` (stereo not shown) [CBK263668], the viability at 28.5 h, 10 µM was determined as 99.7%.

As to `COc1cc(C)c(S(=O)(=O)n2c(C)nc3ccccc32)cc1C` [CBK265464], the viability at 28.5 h, 10 µM came to 94%.

For the compound `Cc1nc2ccc(C(=O)NCCCc3ccccn3)cc2s1` [CBK282478], the viability at 28.5 h, 10 µM is 88.2%.

On to `O=C(Cc1cccs1)N1CCC(c2cc3ncccc3[nH]2)CC1` [CBK283393], for which the viability at 28.5 h, 10 µM is 86.5%.

Consider `Cc1ccc2c(c1)C(=O)CC1(CCN(C(=O)Cc3c(C)[nH]c(=O)[nH]c3=O)CC1)O2` [CBK285688], for which the viability at 28.5 h, 10 µM was determined as 91.6%.

Take `COc1ccc(Nc2nc(N)nc(CSCCO)n2)cc1` [CBK266714]: the viability at 28.5 h, 10 µM stood at 88.3%.

For the compound `Cc1cc(C)c(C#N)c(N2CCOC3(CCN(C(=O)OCc4ccccc4)CC3)C2)n1` [CBK161114T], the viability at 28.5 h, 10 µM was 91%.

In the case of `O=C(OCc1nc2ccccc2[nH]1)N1CCOCC1` [CBK200146], the viability at 28.5 h, 10 µM stood at 109%.

As to `CCC(C)(C)c1ccc(S(=O)(=O)N2CCN(Cc3ccc(O)c(F)c3)CC2)cc1` [CBK062968], the viability at 28.5 h, 10 µM came to 91.7%.

For the compound `CN(C)[C@@H]1CN(Cc2ccccn2)C[C@H]1c1cn(C)c2ccccc12` [CBK284582], the viability at 28.5 h, 10 µM is 97.9%.

Take `COC(=O)[C@@H](NC(=O)C1CCN(C(=O)OCc2ccccc2)CC1)c1ccccc1` [CBK081468]: the viability at 28.5 h, 10 µM was 107%.

In the case of `CC(C)C(CNCc1ccsc1)c1ccnn1C` (stereo not shown) [CBK304821], the viability at 28.5 h, 10 µM was found to be 93.9%.

For the compound `Cc1ccc(S(=O)(=O)N(CC(=O)O)c2ccc(C)c(C)c2)cc1` [CBK263778], the viability at 28.5 h, 10 µM worked out at 89.6%.

As for `O=c1c(Oc2ccccc2Br)c(C(F)(F)F)oc2c(CN3CCCC3)c(O)ccc12` [CBK217827], the viability at 28.5 h, 10 µM was determined as 96%.

Turning to `CN(C)CCCNC(=O)c1cc(C(C)(C)C)nn1Cc1ccc(Cl)cc1Cl` [CBK107286], the viability at 28.5 h, 10 µM came to 102%.

`CC(=O)Nc1ccc2c(c1)CCC(C)C2=O` (stereo not shown) [CBK003474]: the viability at 28.5 h, 10 µM turned out to be 78.4%.

`O=C(Nc1cccc(I)c1)c1ccc(Oc2ccc(C(=O)Nc3cccc(I)c3)cc2)cc1` [CBK261201]: the viability at 28.5 h, 10 µM came to 92.6%.

In the case of `CCCc1nc(C(=O)N2Cc3cnn(Cc4ccc(F)cc4)c3C2)cs1` [CBK307249], the viability at 28.5 h, 10 µM was determined as 86%.

With `CCN(CC)CCCC(C)Nc1ccnc2cc(Cl)ccc12` (stereo not shown) [CBK017143], the viability at 28.5 h, 10 µM was determined as 85.6%.

As to `COc1ccc(C(=O)N2CCC3(CCN(C(=O)Cc4c[nH]cn4)C3)C2)cc1OC` (stereo not shown) [CBK131768], the viability at 28.5 h, 10 µM worked out at 107%.

As for `CCOC(=O)C1=C(N)OC2=C(C(=O)CC(C)(C)C2)C1c1cc(OCC)ccc1OCC` (stereo not shown) [CBK008699], the viability at 28.5 h, 10 µM was 107%.

For the compound `Cc1ccc(S(=O)(=O)NCc2ccc(-c3nn(C)cc3-c3ccncc3C)cc2)cc1` [CBK285632], the viability at 28.5 h, 10 µM was determined as 89.2%.

Regarding `Cc1cc(C)cc(NC(=O)NCCc2cccs2)c1` [CBK044998], the viability at 28.5 h, 10 µM turned out to be 93.2%.

With `Cc1c(Cl)cccc1NC(=O)CSc1nccn1C` [CBK270297], the viability at 28.5 h, 10 µM is 91.5%.
